Assay results taken from US5849736A, “Isoxazoline and isoxazole fibrinogen receptor antagonists” (The DuPont Merck Pharmaceutical Company, priority 1995, dated 1998).
Structures can show the parent of a compound that is named as a salt.

test system: platelet aggregation in human platelet rich plasma (PRP); assay: Platelet Aggregation Assay (platelet rich plasma, with or without esterase pretreatment); format: cell-based; conditions: Platelet, preincubated with 100 IU/mL porcine liver esterase 2 hours at 37° C., 100 μM ADP, read-out: Platelet Aggregation Assay IC50 (with esterase)
Method: Venous blood was obtained from the arm of a healthy human donor who was drug-free and aspirin-free for at least two weeks prior to blood collection. Blood was collected into 10 mL citrated Vacutainer tubes. The blood was centrifuged for 15 minutes at 150×g at room temperature, and platelet-rich plasma (PRP) was removed. The remaining blood was centrifuged for 15 minutes at 1500×g at room temperature, and platelet-poor plasma (PPP) was removed. Samples were assayed on a aggregometer (PAP-4 Platelet Aggregation Profiler), using PPP as the blank (100% transmittance). 200 μL of PRP was added to each micro test tube, and transmittance was set to 0%. 20 μL of various agonists (ADP, collagen, arachidonate, epinephrine, thrombin) were added to each tube, and the aggregation profiles were plotted (% transmittance versus time). The results are expressed as % inhibition of agonist-induced platelet aggregation. For the IC50 evaluation, the test compounds were added at various concentrations prior to the activation of the platelets.
Ester prodrugs were preincubated (10^-3 M F.C.) with 100 IU/mL Porcine liver esterase (Sigma Chemical Co., St. Louis, Mo., #E-3128) for 2 hours at 37° C. Aliquots are then diluted in 0.1M Tris, pH 7.4, to the desired concentrations. Aliquots of 20 μl of the esterase pretreated prodrugs are added to 200 μl of human platelet rich plasma. Samples were placed in platelet profiler (aggregometer) for 8 minutes at 37° C., followed by the addition of 100 μM Adenosine Diphosphate, (Sigma Chemical Co., St. Louis, Mo., #A-6521), to induce platelet aggregation. Platelet aggregation was allowed to proceed for 5 minutes. Percent inhibition is calculated using percent aggregation in the presence of the test compound divided by percent aggregation of control, times 100. This value is subtracted from 100, yielding percent inhibition. Calculation of IC50 is performed on a Texas Instruments TI59 with an IC50 program.
Table A below sets forth the antiplatelet activity of representative compounds of the present invention. The indicated compounds were tested for their ability to inhibit platelet aggregation (using platelet rich plasma (PRP)). The IC50 value (the concentration of antagonist which inhibits platelet aggregation by 50% relative to a control lacking the antagonist) is shown. In Table 5 the IC50 values are expressed as: +++=IC50 of <10 μM; ++=IC50 of 10-50 μM; +=IC50 of 50-100 μM (μM=micromolar).

`COC(=O)CC(NC(=O)CC1CC(c2ccc(C(=N)N)cc2)=NO1)C(=O)NC12CC3CC(CC(C3)C1)C2` (stereo not shown) [Example 466] was tested. Which IC50 did it give?
Its IC50 is under 10 µM.

Which IC50 does the source give for `COC(=O)CC(NC(=O)CC1CC(c2ccc(C(=N)N)cc2)=NO1)C(=O)NC1C2CC3CC(C2)CC1C3` (stereo not shown) [Example 467] here?
Its IC50 is under 10 µM.

`COC(=O)CC(NC(=O)CC1CC(c2ccc(C(=N)N)cc2)=NO1)C(=O)N1CCSCC1` (stereo not shown) [Example 468] was tested. Which IC50 did it give?
The IC50 was under 10 µM.

Which IC50 does the source give for `COC(=O)CC(NC(=O)CC1CC(c2ccc(C(=N)N)cc2)=NO1)C(=O)N1CCSC1` (stereo not shown) [Example 469] here?
Its IC50 is under 10 µM.

Which IC50 does the source give for `CCCCOc1ccc(S(=O)(=O)NC(CNC(=O)CC2CC(c3ccc(C(=N)N)cc3)=NO2)C(=O)OC)cc1` (stereo not shown) [Example 471] here?
The IC50 was under 10 µM.

Which IC50 does the source give for `COC(=O)C(CNC(=O)CC1CC(c2ccc(C(=N)N)cc2)=NO1)NS(=O)(=O)c1cccs1` (stereo not shown) [Example 472] here?
Its IC50 is under 10 µM.

With `COC(=O)[C@H](CNC(=O)CC1CC(c2ccc(C(=N)N)cc2)=NO1)NS(=O)(=O)c1cccc(C)c1` (stereo partly drawn) [Example 473A, Methyl N^2-3-methylphenylsulfonyl-N^3-[3-(4-amidinophenyl)isoxazolin-5R-ylacetyl]-S-2,3-diaminopropionate trifluoroacetic acid salt] as the molecule, how does the IC50 read?
The IC50 was under 10 µM.

With `COC(=O)C(CNC(=O)CC1CC(c2ccc(C(=N)N)cc2)=NO1)NS(=O)(=O)c1cccc(C)c1` (stereo not shown) [Example 473] as the molecule, how does the IC50 read?
Its IC50 is under 10 µM.

How did the IC50 turn out when `COC(=O)C(CNC(=O)CC1CC(c2ccc(C(=N)N)cc2)=NO1)NS(=O)(=O)c1ccc(I)cc1` (stereo not shown) [Example 474] was run?
Its IC50 is under 10 µM.

Which IC50 does the source give for `COC(=O)C(CNC(=O)CC1CC(c2ccc(C(=N)N)cc2)=NO1)NS(=O)(=O)c1cccc(C(F)(F)F)c1` (stereo not shown) [Example 475] here?
Its IC50 is under 10 µM.

How did the IC50 turn out when `COC(=O)C(CNC(=O)CC1CC(c2ccc(C(=N)N)cc2)=NO1)NS(=O)(=O)c1cccc(Cl)c1` (stereo not shown) [Example 476] was run?
Its IC50 is under 10 µM.

How did the IC50 turn out when `COC(=O)c1ccccc1S(=O)(=O)NC(CNC(=O)CC1CC(c2ccc(C(=N)N)cc2)=NO1)C(=O)OC` (stereo not shown) [Example 477] was run?
Its IC50 is under 10 µM.

Which IC50 does the source give for `COC(=O)C(CNC(=O)CC1CC(c2ccc(C(=N)N)cc2)=NO1)NS(=O)(=O)c1c(C)cc(C)cc1C` (stereo not shown) [Example 478] here?
Its IC50 is under 10 µM.

Which IC50 does the source give for `COC(=O)C(CNC(=O)CC1CC(c2ccc(C(=N)N)cc2)=NO1)NS(=O)(=O)c1ccccc1Cl` (stereo not shown) [Example 479] here?
The IC50 was under 10 µM.

For `COC(=O)C(CNC(=O)CC1CC(c2ccc(C(=N)N)cc2)=NO1)NS(=O)(=O)c1ccccc1C(F)(F)F` (stereo not shown) [Example 480], which IC50 is on record?
Its IC50 is under 10 µM.

With `COC(=O)C(CNC(=O)CC1CC(c2ccc(C(=N)N)cc2)=NO1)NS(=O)(=O)c1ccc(C(F)(F)F)cc1` (stereo not shown) [Example 481] as the molecule, how does the IC50 read?
The IC50 was under 10 µM.

`COC(=O)C(CNC(=O)CC1CC(c2ccc(C(=N)N)cc2)=NO1)NS(=O)(=O)c1ccccc1F` (stereo not shown) [Example 482] was tested. Which IC50 did it give?
The IC50 was under 10 µM.

For `COC(=O)C(CNC(=O)CC1CC(c2ccc(C(=N)N)cc2)=NO1)NS(=O)(=O)c1ccc(F)cc1` (stereo not shown) [Example 483], which IC50 is on record?
Its IC50 is under 10 µM.

For `COC(=O)C(CNC(=O)CC1CC(c2ccc(C(=N)N)cc2)=NO1)NS(=O)(=O)c1ccc(OC)cc1` (stereo not shown) [Example 484], which IC50 is on record?
Its IC50 is under 10 µM.

With `COC(=O)C(CNC(=O)CC1CC(c2ccc(C(=N)N)cc2)=NO1)NS(=O)(=O)c1c(C)c(C)cc(C)c1C` (stereo not shown) [Example 485] as the molecule, how does the IC50 read?
Its IC50 is under 10 µM.

Which IC50 does the source give for `COC(=O)C(CNC(=O)CC1CC(c2ccc(C(=N)N)cc2)=NO1)NS(=O)(=O)c1ccc(C#N)cc1` (stereo not shown) [Example 486] here?
The IC50 was under 10 µM.

`COC(=O)C(CNC(=O)CC1CC(c2ccc(C(=N)N)cc2)=NO1)NS(=O)(=O)c1ccc(Cl)cc1` (stereo not shown) [Example 487] was tested. Which IC50 did it give?
Its IC50 is under 10 µM.

How did the IC50 turn out when `CCc1ccc(S(=O)(=O)NC(CNC(=O)CC2CC(c3ccc(C(=N)N)cc3)=NO2)C(=O)OC)cc1` (stereo not shown) [Example 488] was run?
The IC50 was under 10 µM.

For `CCCc1ccc(S(=O)(=O)NC(CNC(=O)CC2CC(c3ccc(C(=N)N)cc3)=NO2)C(=O)OC)cc1` (stereo not shown) [Example 489], which IC50 is on record?
The IC50 was under 10 µM.

How did the IC50 turn out when `CCCS(=O)(=O)NC(CNC(=O)CC1CC(c2ccc(C(=N)N)cc2)=NO1)C(=O)OC` (stereo not shown) [Example 490] was run?
The IC50 was under 10 µM.

`COC(=O)C(CNC(=O)CC1CC(c2ccc(C(=N)N)cc2)=NO1)NS(=O)(=O)CCc1ccccc1` (stereo not shown) [Example 491] was tested. Which IC50 did it give?
The IC50 was under 10 µM.

With `COC(=O)C(CNC(=O)CC1CC(c2ccc(C(=N)N)cc2)=NO1)NS(=O)(=O)c1ccc(C(C)C)cc1` (stereo not shown) [Example 492] as the molecule, how does the IC50 read?
Its IC50 is under 10 µM.

Which IC50 does the source give for `COC(=O)C(CNC(=O)CC1CC(c2ccc(C(=N)N)cc2)=NO1)NS(=O)(=O)CCCc1ccccc1` (stereo not shown) [Example 493] here?
The IC50 was under 10 µM.

For `COC(=O)C(CNC(=O)CC1CC(c2ccc(C(=N)N)cc2)=NO1)NS(=O)(=O)c1cccnc1` (stereo not shown) [Example 494], which IC50 is on record?
Its IC50 is under 10 µM.

Which IC50 does the source give for `COC(=O)C(CNC(=O)CC1CC(c2ccc(C(=N)N)cc2)=NO1)NS(=O)(=O)c1ccccn1` (stereo not shown) [Example 495] here?
Its IC50 is under 10 µM.

`COC(=O)[C@H](CNC(=O)CC1CC(c2ccc(C(=N)N)cc2)=NO1)NS(=O)(=O)C=C(c1ccccc1)c1ccccc1` (stereo partly drawn) [Example 496, Methyl N^2-(2,2-diphenyl-1-ethenesulfonyl)-N^3-[3-(4-amidinophenyl)isoxazolin-5-(R,S)-ylacetyl]-(S)-2,3-diaminopropionate, trifluoroacetic acid salt] was tested. Which IC50 did it give?
The IC50 was under 10 µM.

For `CCCCNS(=O)(=O)NC(CNC(=O)CC1CC(c2ccc(C(=N)N)cc2)=NO1)C(=O)OC` (stereo not shown) [Example 504], which IC50 is on record?
The IC50 was under 10 µM.

`COC(=O)C(CNC(=O)CC1CC(c2ccc(C(=N)N)cc2)=NO1)NS(=O)(=O)NCC(C)C` (stereo not shown) [Example 505] was tested. Which IC50 did it give?
The IC50 was under 10 µM.

Which IC50 does the source give for `COC(=O)C(CNC(=O)CC1CC(c2ccc(C(=N)N)cc2)=NO1)NS(=O)(=O)NC(C)(C)C` (stereo not shown) [Example 506] here?
The IC50 was under 10 µM.

Which IC50 does the source give for `COC(=O)C(CNC(=O)CC1CC(c2ccc(C(=N)N)cc2)=NO1)NS(=O)(=O)NC(C)C` (stereo not shown) [Example 507] here?
The IC50 was under 10 µM.

For `COC(=O)C(CNC(=O)CC1CC(c2ccc(C(=N)N)cc2)=NO1)NS(=O)(=O)NC1CCCCC1` (stereo not shown) [Example 508], which IC50 is on record?
Its IC50 is under 10 µM.

Which IC50 does the source give for `COC(=O)C(CNC(=O)CC1CC(c2ccc(C(=N)N)cc2)=NO1)NS(=O)(=O)Nc1ccccc1` (stereo not shown) [Example 509] here?
Its IC50 is under 10 µM.

`COC(=O)C(CNC(=O)CC1CC(c2ccc(C(=N)N)cc2)=NO1)NS(=O)(=O)NCc1ccccc1` (stereo not shown) [Example 510] was tested. Which IC50 did it give?
The IC50 was under 10 µM.

`COC(=O)[C@H](CNC(=O)CC1CC(c2ccc(C(=N)N)cc2)=NO1)NS(=O)(=O)N(C)C` (stereo partly drawn) [Example 511, Methyl N^2-(N,N-dimethylsulfamoyl)-N^3-[3-(4-amidinophenyl)isoxazolin-5-(R,S)-ylacetyl]-(S)-2,3-diaminopropionate, trifluoroacetic acid salt] was tested. Which IC50 did it give?
Its IC50 is under 10 µM.

Which IC50 does the source give for `COC(=O)[C@H](CNC(=O)CC1CC(c2ccc(C(=N)N)cc2F)=NO1)NS(=O)(=O)c1cccc(C)c1` (stereo partly shown) [Example 512, Methyl N^2-(m-toluenesulfonyl)-N^3-[3-(4-amidino-2-fluorophenyl)isoxazolin-5-ylacetyl]-S-2,3-diaminopropionate hydrochloric acid salt] here?
The IC50 was under 10 µM.

With `CCCCOC(=O)N[C@@H](CNC(=O)CC1CC(c2ccc(C(=N)N)cn2)=NO1)C(=O)OC` (stereo partly shown) [Example 513, Methyl N^2-(n-butyloxycarbonyl)-N^3-[3-(3-amidinopyrid-6-yl)isoxazolin-5-ylacetyl]-S-2,3-diaminopropionate hydrochloric acid salt] as the molecule, how does the IC50 read?
The IC50 was under 10 µM.

How did the IC50 turn out when `COC(=O)[C@H](CNC(=O)CC1CC(c2ccc(C(=N)N)cn2)=NO1)NS(=O)(=O)c1cccc(C)c1` (stereo partly shown) [Example 514, Methyl N^2-(m-toluenesulfonyl)-N^3-3-(3-amidinopyrid-6-yl)isoxazolin-5-ylacetyl]-S-2,3-diaminopropionate hydrochloric acid salt] was run?
The IC50 was under 10 µM.

For `CCCCOC(=O)N[C@@H](CNC(=O)CC1CC(c2ccc(C(=N)N)nc2)=NO1)C(=O)OC` (stereo partly shown) [Example 515, Methyl N^2-(n-butyloxycarbonyl)-N^3-[3-(2-amidinopyrid-5-yl)isoxazolin-5-ylacetyl]-S-2,3-diaminopropionate hydrochloric acid salt], which IC50 is on record?
The IC50 was under 10 µM.

Which IC50 does the source give for `COC(=O)[C@H](CNC(=O)CC1CC(c2ccc(C(=N)N)nc2)=NO1)NS(=O)(=O)c1cccc(C)c1` (stereo partly shown) [Example 516, Methyl N^2-(m-toluenesulfonyl)-N^3-[3-(2-amidinopyrid-5-yl)isoxazolin-5-ylacetyl]-S-2,3-diaminopropionate hydrochloric acid salt] here?
Its IC50 is under 10 µM.

same assay, conditions: preincubated with 100 IU/mL porcine liver esterase 2 hours at 37° C., 100 μM ADP, read-out: Platelet Aggregation Assay IC50 (with esterase)

`COC(=O)[C@H](CNC(=O)CC1CC(c2ccc(C(=N)N)cc2)=NO1)NS(=O)(=O)c1cccc(C)c1` (stereo partly drawn) [Example 473B, Methyl N^2-3-methylphenylsulfonyl-N^3-[3-(4-amidinophenyl)-5S-ylacetyl]-S-2,3-diaminopropionate trifluoroacetic acid salt] was tested. Which IC50 did it give?
The IC50 was under 10 µM.

`COC(=O)[C@H](CNC(=O)CC1CC(c2ccc(C(=N)N)cc2)=NO1)NC(=O)Nc1ccccc1` (stereo partly shown) [Example 517] was tested. Which IC50 did it give?
Its IC50 is under 10 µM.
